Measured values taken from patent US20220221458A1, “NOROVIRUS-BINDING PEPTIDE” (Kao Corporation, priority 2019, published 2022).

System: norovirus VLPs (GII.4, GII.3, GII.17)
Experiment: In vitro selection by cDNA display against VLPs with appearance frequency analysis of sequences
Details: count among peptide aptamer sequences obtained after in vitro selection cycles (7 cycles GII.4, 5 cycles GII.3 and GII.17)
Protocol: The constructed cDNA display and VLPs were incubated in 100 μL of a dialysis selection buffer (20 mM HEPES (pH 7.4), 150 mM NaCl, and 0.05% s Tween 20) at the concentrations shown in Table 9 below at 25° C. for 30 minutes. Subsequently, the resultant was diluted to 1 mL with the dialysis selection buffer, and was put in Float-A-Lyzer G2 Dialysis Device CE, 1000kD MWCO (manufactured by Spectrum Laboratories, Inc.) and was dialyzed with 1 L of the dialysis selection buffer as the external solution at 25° C. During the dialysis, the external solution was replaced with new one 3 times every 2 hours, and the dialysis was performed overnight (for 8 hours) after the 4th replacement. The dialysis product was concentrated with Amicon Ultra 100K (manufactured by Merck Millipore S.A.S.) at 14,000×g for 5 minutes.
To an immunoplate (C-BOTTOM, CLEAR, MICROLON (registered trademark), HIGH BINDING, manufactured by Greiner Bio-One), 100 μL of 3 μg/mL GII.3 or GII.17 VLP solution was added and immobilization was performed at 4° C. overnight. Subsequently, the solution was discarded, and 200 μL of a blocking agent (EMD Millipore™ Blok™ NSB Blocking agents, Thermo Fisher Scientific) was added, followed by gently stirring at room temperature for 2 hours for blocking. On this occasion, wells not immobilizing the VLP were also subjected to similar blocking to be used in preselection.
The solution was discarded from the wells, the wells were washed with 200 μL of a wash buffer (10 mM Hepes (pH 7.4), 150 mM NaCl, and 0.05% Tween 20) three times, and 100 μL of cDNA display (constructed from 1.5 pmol of mRNA-linker) was then put in the wells not immobilizing the VLP, followed by gently stirring at room temperature for 30 minutes to perform preselection. Subsequently, the supernatant containing cDNA display that had not bound to the blocking agent was put in the wells immobilizing the VLP, followed by gently stirring at room temperature for 30 minutes to be bound to the VLP. The supernatant was discarded, washing with 100 μL of the wash buffer was performed four times, and 100 μL of a 5′ SDS solution was then added, followed by incubation at 50° C. for 15 minutes to elute the bound cDNA display.
Subsequently, the VLP-cDNA display complex obtained above was diluted to 100 μL with a dialysis selection buffer, and 10 μL of a coprecipitating agent (Quick-Precip Plus Solution, manufactured by EdgeBio) and 220 μL of 100% ethanol were added, followed by centrifugation at 20,000×g for 5 minutes. Subsequently, the supernatant was discarded, and 1 mL of 70, ethanol was added for rinsing. […] The PCR program was (a) 98° C. for 2 minutes, (b) 95° C. for 20 seconds, (c) 69° C. for 20 seconds, (d) 72° C. for 20 seconds (steps (b) to (d) were performed 25 cycles), and (e) 72° C. for 1 minute.
After the in vitro selection cycle (7 cycles for GII.4 and 5 cycles for GII.3 and GII.17 based on the libraries of 7 cycles obtained by GII.4 dialysis), a sequence library was prepared by the following method, and the sequence information was analyzed. The preparation of the sequence library and the sequencing were performed according to the 16S Metagenomic Sequencing Library Preparation protocol (manufactured by Illumina, Inc.).
The Fastq file of the obtained sequence was converted to a Fasta file, all of the obtained sequences were simultaneously translated from the first base of the start codon (ATG) at position 115 to the third base of the cysteine codon (TGC) at position 156 of the library sequence (SEQ ID NO: 279) using software MEGA.

| Substance | Appearance Frequency |
| --- | --- |
| 176 (FQYAHW; Designed peptide) [compound 176] | 6 |
| 78 (GQRLTV; Designed peptide) [compound 78] | 8 |
| 137 (QDRVTS; Designed peptide) [compound 137] | 7 |
| 126 (LFHPWV; Designed peptide) [compound 126] | 7 |
| 130 (NASRFY; Designed peptide) [compound 130] | 7 |
| 203 (ITLIDT; Designed peptide) [compound 203] | 6 |
| 232 (RGHPST; Designed peptide) [compound 232] | 6 |
| 109 (GCHYQF; Designed peptide) [compound 109] | 7 |
| 235 (RHTQTL; Designed peptide) [compound 235] | 6 |
| 242 (RTISGS; Designed peptide) [compound 242] | 6 |
| 95 (VGHVNW; Designed peptide) [compound 95] | 8 |
| 26 (TWDLTL; Designed peptide) [compound 26] | 12 |
| 51 (VMCPNR; Designed peptide) [compound 51] | 10 |
| 266 (YGKQRG; Designed peptide) [compound 266] | 6 |
| 194 (HQTGRL; Designed peptide) [compound 194] | 6 |
| 177 (FTQDAV; Designed peptide) [compound 177] | 6 |
| 254 (STEFAR; Designed peptide) [compound 254] | 6 |
| 105 (EEMIVS; Designed peptide) [compound 105] | 7 |
| 236 (RIVLES; Designed peptide) [compound 236] | 6 |
| 55 (GTRHPS; Designed peptide) [compound 55] | 9 |
| 66 (SGYYRV; Designed peptide) [compound 66] | 9 |
| 255 (STLVCP; Designed peptide) [compound 255] | 6 |
| 13 (SVQSWK; Designed peptide) [compound 13] | 15 |
| 136 (PVLHLH; Designed peptide) [compound 136] | 7 |
| 43 (HIHGRE; Designed peptide) [compound 43] | 10 |
| 161 (WVYARR; Designed peptide) [compound 161] | 7 |

| Substance | Appearance Frequency |
| --- | --- |
| 111 (GGGVTT; Designed peptide) [compound 111] | 7 |
| 239 (RLRDPQ; Designed peptide) [compound 239] | 6 |
| 115 (GVNSGH; Designed peptide) [compound 115] | 7 |
| 31 (HIPSRH; Designed peptide) [compound 31] | 11 |
| 217 (NDHDHH; Designed peptide) [compound 217] | 6 |
| 91 (SSLALH; Designed peptide) [compound 91] | 8 |
| 231 (RGGRTL; Designed peptide) [compound 231] | 6 |
| 241 (RSSAKR; Designed peptide) [compound 241] | 6 |
| 268 (YRSNHG; Designed peptide) [compound 268] | 6 |
| 246 (SAMFAS; Designed peptide) [compound 246] | 6 |
| 42 (GNSPYT; Designed peptide) [compound 42] | 10 |
| 62 (RALAKR; Designed peptide) [compound 62] | 9 |
| 63 (REESFS; Designed peptide) [compound 63] | 9 |
| 83 (KTRAIN; Designed peptide) [compound 83] | 8 |
| 225 (PWTVPN; Designed peptide) [compound 225] | 6 |
| 179 (GCLSHH; Designed peptide) [compound 179] | 6 |
| 214 (MSNKMV; Designed peptide) [compound 214] | 6 |
| 75 (FTMHTN; Designed peptide) [compound 75] | 8 |
| 118 (HSSFSS; Designed peptide) [compound 118] | 7 |
| 198 (HYRARY; Designed peptide) [compound 198] | 6 |
| 227 (QFSQLG; Designed peptide) [compound 227] | 6 |
| 76 (GGSHST; Designed peptide) [compound 76] | 8 |
| 23 (LKASIR; Designed peptide) [compound 23] | 12 |
| 167 (CLHFAL; Designed peptide) [compound 167] | 6 |
| 97 (VISLET; Designed peptide) [compound 97] | 8 |
| 169 (DRWGSK; Designed peptide) [compound 169] | 6 |

| Substance | Appearance Frequency |
| --- | --- |
| 45 (RPFTML; Designed peptide) [compound 45] | 10 |
| 264 (WTMSPA; Designed peptide) [compound 264] | 6 |
| 119 (HYRSKS; Designed peptide) [compound 119] | 7 |
| 260 (VMSPCN; Designed peptide) [compound 260] | 6 |
| 124 (KVHGST; Designed peptide) [compound 124] | 7 |
| 65 (SGTMQE; Designed peptide) [compound 65] | 9 |
| 190 (HKASHW; Designed peptide) [compound 190] | 6 |
| 173 (EEKTRR; Designed peptide) [compound 173] | 6 |
| 37 (WEVALH; Designed peptide) [compound 37] | 11 |
| 146 (RSAAGD; Designed peptide) [compound 146] | 7 |
| 22 (GLRYRE; Designed peptide) [compound 22] | 12 |
| 171 (DWPYSR; Designed peptide) [compound 171] | 6 |
| 133 (NKYSHR; Designed peptide) [compound 133] | 7 |
| 58 (KFSHRK; Designed peptide) [compound 58] | 9 |
| 184 (GPCNSA; Designed peptide) [compound 184] | 6 |
| 156 (VRNLVH; Designed peptide) [compound 156] | 7 |
| 256 (STSVDW; Designed peptide) [compound 256] | 6 |
| 34 (SVHTHR; Designed peptide) [compound 34] | 11 |
| 35 (TKRQNL; Designed peptide) [compound 35] | 11 |
| 138 (QLHRHK; Designed peptide) [compound 138] | 7 |
| 204 (KACAHL; Designed peptide) [compound 204] | 6 |
| 112 (GHFDAR; Designed peptide) [compound 112] | 7 |
| 28 (VMMQCP; Designed peptide) [compound 28] | 12 |
| 33 (SRHCVP; Designed peptide) [compound 33] | 11 |
| 98 (VVWFTD; Designed peptide) [compound 98] | 8 |
| 30 (DRYSAW; Designed peptide) [compound 30] | 11 |

| Substance | Appearance Frequency |
| --- | --- |
| 233 (RGTMWL; Designed peptide) [compound 233] | 6 |
| 269 (YYPDHP; Designed peptide) [compound 269] | 6 |
| 85 (LHMKPI; Designed peptide) [compound 85] | 8 |
| 25 (NLYDRF; Designed peptide) [compound 25] | 12 |
| 243 (RTLLVQ; Designed peptide) [compound 243] | 6 |
| 153 (TTKYMW; Designed peptide) [compound 153] | 7 |
| 258 (TNYLSF; Designed peptide) [compound 258] | 6 |
| 201 (IKAHTR; Designed peptide) [compound 201] | 6 |
| 77 (GMLRFP; Designed peptide) [compound 77] | 8 |
| 12 (LNWSRS; Designed peptide) [compound 12] | 15 |
| 166 (ATITVW; Designed peptide) [compound 166] | 6 |
| 165 (ARNHGS; Designed peptide) [compound 165] | 6 |
| 38 (AGYPRY; Designed peptide) [compound 38] | 10 |
| 64 (RKLFRN; Designed peptide) [compound 64] | 9 |
| 154 (TVLHHR; Designed peptide) [compound 154] | 7 |
| 152 (SWPFCT; Designed peptide) [compound 152] | 7 |
| 47 (TTSHFK; Designed peptide) [compound 47] | 10 |
| 60 (NTHRHS; Designed peptide) [compound 60] | 9 |
| 44 (QSSKKF; Designed peptide) [compound 44] | 10 |
| 15 (SIGVDR; Designed peptide) [compound 15] | 14 |
| 90 (SSCVMP; Designed peptide) [compound 90] | 8 |
| 86 (MSTHKV; Designed peptide) [compound 86] | 8 |
| 139 (RFLMRH; Designed peptide) [compound 139] | 7 |
| 230 (QYCFVG; Designed peptide) [compound 230] | 6 |
| 162 (YRARMS; Designed peptide) [compound 162] | 7 |
